Results from ChEMBL document CHEMBL1201862, “PubChem BioAssay data set” (2004).
Calls of active or inactive are those of the source.

What was measured:
[1] = target: T1, Heat shock factor protein 1 (Mus musculus, UniProt P38532); experiment: HSF1 potentiators in luciferase reporter cells, confirmation, cell-based, NIH3T3, luminescence, dose retest (AID 435004); assay type: functional;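 further: stress induced by proteasome inhibitor MG132 added 30 min after compound; luciferase reporter driven by HSF1 response element in NIH3T3 cells; actives raise luminescence as potentiators of the MG132 stress response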
T1 sequence (P38532 whole entry): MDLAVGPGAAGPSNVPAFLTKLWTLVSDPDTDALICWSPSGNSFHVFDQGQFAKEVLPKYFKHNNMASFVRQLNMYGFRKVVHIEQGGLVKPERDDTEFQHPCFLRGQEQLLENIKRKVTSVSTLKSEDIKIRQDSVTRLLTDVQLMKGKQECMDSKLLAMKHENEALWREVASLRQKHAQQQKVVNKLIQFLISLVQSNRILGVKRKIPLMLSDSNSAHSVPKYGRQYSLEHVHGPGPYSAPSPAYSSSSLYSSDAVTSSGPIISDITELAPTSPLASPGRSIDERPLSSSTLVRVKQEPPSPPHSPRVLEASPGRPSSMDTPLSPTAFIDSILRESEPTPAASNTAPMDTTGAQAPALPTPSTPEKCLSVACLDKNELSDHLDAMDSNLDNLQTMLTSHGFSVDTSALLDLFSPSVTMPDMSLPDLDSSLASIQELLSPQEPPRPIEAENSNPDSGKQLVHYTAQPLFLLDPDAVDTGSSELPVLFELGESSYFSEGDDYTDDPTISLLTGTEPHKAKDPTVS

[2] = inhibitors of SNCA 5'UTR-driven reporter translation, confirmation, H4 neuroglioma cells, luminescence (AID 1988); assay type: functional, cell-based
[3] = Luminescence Cell-Based Dose Response HTS to Identify Inhibitors of 5'UTR Stem-Loop Driven Prion Protein mRNA Translation in H4 Neuroglioblastoma Cells. [Related pubchem assays: 1827 (Project Summary), 1813 (Primary HTS)]; assay type: functional
Cytochrome P450 3A4 = Cytochrome P450 3A4 (Homo sapiens, UniProt P08684);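 further: CYP3A4 tested as one member of a cytochrome P450 panel screen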
Cytochrome P450 3A4, sequence (P08684 whole entry): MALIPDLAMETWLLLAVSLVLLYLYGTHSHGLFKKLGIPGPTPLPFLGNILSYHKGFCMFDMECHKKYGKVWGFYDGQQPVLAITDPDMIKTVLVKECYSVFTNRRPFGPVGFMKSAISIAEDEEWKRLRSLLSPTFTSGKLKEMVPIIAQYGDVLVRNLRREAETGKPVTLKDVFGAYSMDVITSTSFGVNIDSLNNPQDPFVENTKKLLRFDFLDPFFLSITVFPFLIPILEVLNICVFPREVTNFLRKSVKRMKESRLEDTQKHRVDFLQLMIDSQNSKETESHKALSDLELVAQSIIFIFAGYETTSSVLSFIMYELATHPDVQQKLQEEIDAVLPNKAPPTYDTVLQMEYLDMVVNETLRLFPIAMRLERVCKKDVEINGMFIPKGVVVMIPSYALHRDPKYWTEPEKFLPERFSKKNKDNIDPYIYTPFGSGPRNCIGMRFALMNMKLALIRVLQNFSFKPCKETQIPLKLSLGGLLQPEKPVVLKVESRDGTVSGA

Cytochrome P450 2C9 = Cytochrome P450 2C9 (Homo sapiens, UniProt P11712)
Cytochrome P450 2C9, sequence (P11712 whole entry): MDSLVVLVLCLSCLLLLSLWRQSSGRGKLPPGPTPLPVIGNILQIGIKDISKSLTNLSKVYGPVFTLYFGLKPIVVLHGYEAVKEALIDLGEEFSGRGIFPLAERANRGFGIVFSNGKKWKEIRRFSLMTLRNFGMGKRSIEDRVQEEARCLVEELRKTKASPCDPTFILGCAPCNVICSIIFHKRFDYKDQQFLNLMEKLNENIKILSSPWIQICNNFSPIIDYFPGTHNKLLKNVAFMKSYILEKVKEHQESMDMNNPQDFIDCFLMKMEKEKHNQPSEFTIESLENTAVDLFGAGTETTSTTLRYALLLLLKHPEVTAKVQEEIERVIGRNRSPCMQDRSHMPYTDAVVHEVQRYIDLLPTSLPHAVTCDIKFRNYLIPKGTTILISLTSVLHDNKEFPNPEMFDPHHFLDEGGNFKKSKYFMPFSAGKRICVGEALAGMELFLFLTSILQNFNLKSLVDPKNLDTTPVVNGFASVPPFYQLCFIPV

Cytochrome P450 2C19 = Cytochrome P450 2C19 (Homo sapiens, UniProt P33261); experiment: Cytochrome panel assay with activity outcomes. Panel member name: p450-cyp2c19 Compounds with AC50 equal or less than 10 uM are considered active; assay type: functional
Cytochrome P450 2C19, sequence (P33261 whole entry): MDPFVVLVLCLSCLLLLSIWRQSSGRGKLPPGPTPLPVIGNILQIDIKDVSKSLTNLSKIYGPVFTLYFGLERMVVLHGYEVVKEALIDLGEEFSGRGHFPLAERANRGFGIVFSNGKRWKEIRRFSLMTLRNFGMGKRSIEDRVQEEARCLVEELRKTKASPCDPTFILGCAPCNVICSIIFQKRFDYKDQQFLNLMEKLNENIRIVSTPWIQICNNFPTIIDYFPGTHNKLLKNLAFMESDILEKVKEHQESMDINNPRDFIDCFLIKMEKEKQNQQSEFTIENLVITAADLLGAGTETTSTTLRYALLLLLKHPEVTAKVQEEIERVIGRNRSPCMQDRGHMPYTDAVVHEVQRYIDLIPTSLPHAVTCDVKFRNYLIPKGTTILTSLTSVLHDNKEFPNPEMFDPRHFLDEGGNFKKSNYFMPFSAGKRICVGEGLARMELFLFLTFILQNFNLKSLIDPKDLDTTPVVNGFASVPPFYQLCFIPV

Cytochrome P450 2D6 = Cytochrome P450 2D6 (Homo sapiens, UniProt P10635);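 further: CYP2D6 member of a cytochrome P450 panel assay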
Cytochrome P450 2D6, sequence (P10635 whole entry): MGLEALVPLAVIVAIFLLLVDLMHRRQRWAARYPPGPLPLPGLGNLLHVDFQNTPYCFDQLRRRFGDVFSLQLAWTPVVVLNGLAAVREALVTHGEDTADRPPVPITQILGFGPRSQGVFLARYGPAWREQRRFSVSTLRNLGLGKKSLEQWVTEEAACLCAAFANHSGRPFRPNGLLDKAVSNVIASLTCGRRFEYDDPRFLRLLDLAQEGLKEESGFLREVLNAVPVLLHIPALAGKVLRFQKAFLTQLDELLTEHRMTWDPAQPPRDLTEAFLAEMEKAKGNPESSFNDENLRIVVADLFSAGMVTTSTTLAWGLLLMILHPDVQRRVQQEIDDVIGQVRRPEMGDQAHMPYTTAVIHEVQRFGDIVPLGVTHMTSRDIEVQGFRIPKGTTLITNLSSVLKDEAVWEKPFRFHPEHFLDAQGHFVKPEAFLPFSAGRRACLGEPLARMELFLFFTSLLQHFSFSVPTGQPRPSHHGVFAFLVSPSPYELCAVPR

[4] = inhibitors of firefly luciferase expression or activity, dose response, H4 neuroglioma cells, luminescence (AID 1990); assay type: functional, cell-based
INS1 = experiment: beta cell apoptosis inhibitors, cytokine rescue, dose response, luminescence, retest (AID 449756); assay type: functional, cell-based; settings: Rattus norvegicus;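 further: cell death triggered by IL-1 beta plus TNF-alpha plus IFN-gamma mixture; protective hits raise ATP signal compared with cytokine alone wells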
[5] = target: FAD-linked sulfhydryl oxidase ALR (Homo sapiens, UniProt P55789); experiment: inhibitors of human ALR sulfhydryl oxidase, dose response, biochemical, H2O2 detection, luminescence, cherry-pick (AID 493248)
FAD-linked sulfhydryl oxidase ALR, sequence (P55789 whole entry): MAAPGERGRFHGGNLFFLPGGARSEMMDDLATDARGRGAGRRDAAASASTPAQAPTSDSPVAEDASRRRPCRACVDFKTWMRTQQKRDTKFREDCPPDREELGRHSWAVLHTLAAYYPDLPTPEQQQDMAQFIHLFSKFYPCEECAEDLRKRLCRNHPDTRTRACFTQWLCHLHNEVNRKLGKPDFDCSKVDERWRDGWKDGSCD

H4 = experiment: Luminescence Cell-Based Dose Response HTS to Identify Activators of 5'UTR Stem-Loop Driven Prion Protein mRNA Translation in H4 Neuroglioblastoma Cells. [Related pubchem assays: 1829 (Project Summary), 1814 (Primary HTS)]; assay type: functional; settings: Homo sapiens
[6] = Luminescence Cell-Based Dose Confirmation HTS to Identify Activators of 5'UTR Stem-Loop Driven Alpha-Synuclein mRNA Translation in H4 Neuroglioblastoma Cells. [Related pubchem assays: 1829 (Project Summary), 1814 (Primary HTS)]; assay type: functional
[7] = Luminescence Cell-Based Dose Response HTS to Identify Activators of Luciferase Translation or Activity in H4 […] Cells. [Related pubchem assays: 1829 (Project Summary), 1814 (Primary HTS)]; assay type: functional
[8] = target: T2, Rac GTPase-activating protein 1 (Homo sapiens, UniProt Q9H0H5); experiment: MgcRacGAP GTPase-activating activity inhibitors, confirmation, biochemical, ADP Hunter fluorescence, primary and confirmatory (AID 624330); assay type: functional
T2 sequence (Q9H0H5 whole entry): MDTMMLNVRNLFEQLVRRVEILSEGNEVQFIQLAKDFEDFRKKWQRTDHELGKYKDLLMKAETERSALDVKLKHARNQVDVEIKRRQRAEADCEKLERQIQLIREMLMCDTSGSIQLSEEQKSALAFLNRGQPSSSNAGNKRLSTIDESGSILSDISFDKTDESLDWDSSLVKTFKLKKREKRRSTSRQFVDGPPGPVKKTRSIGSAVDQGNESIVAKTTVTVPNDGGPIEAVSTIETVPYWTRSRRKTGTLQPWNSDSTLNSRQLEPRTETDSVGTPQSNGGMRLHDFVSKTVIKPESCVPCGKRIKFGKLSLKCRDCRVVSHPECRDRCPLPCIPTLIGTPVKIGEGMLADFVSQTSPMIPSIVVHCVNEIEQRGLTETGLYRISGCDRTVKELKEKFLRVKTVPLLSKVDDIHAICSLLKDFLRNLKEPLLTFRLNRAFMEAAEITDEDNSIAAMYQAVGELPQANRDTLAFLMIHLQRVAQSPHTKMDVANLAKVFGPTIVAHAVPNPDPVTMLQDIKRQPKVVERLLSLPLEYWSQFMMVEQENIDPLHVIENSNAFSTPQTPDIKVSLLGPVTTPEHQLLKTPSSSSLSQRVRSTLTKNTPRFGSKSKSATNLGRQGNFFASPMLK

CC(C)=NN1C(=O)c2ccccc2NC1(C)C
EC50 [1]: > 260 µM (inactive)

C[C@@H]1C(NC(=O)c2ccccc2)CC2CC1C2(C)C (some centres not stated)
EC50 [1]: > 260 µM (inactive)

O=C1c2ccccc2C(=O)N1CC(O)COc1ccc(Br)cc1 (configuration not stated)
EC50 [1]: 64.3 µM (active)

Cc1cc(C)c(NC=C2C(=O)NC(=O)NC2=O)c(C)c1
EC50 [2]: > 120 µM (not active)
EC50 [3]: > 60 µM (not active)

CCOC(=O)/C(C#N)=C\c1ccc(OCC(=O)Nc2ccc(C)cc2C)c(OC)c1
AC50 (Cytochrome P450 3A4): 10 µM (inconclusive)
AC50 (Cytochrome P450 2C9): 25.1 µM (inconclusive)

O=C1[C@@H]2C=CC=CC2=NC(=S)N1CCN1CCC(=C(c2ccc(F)cc2)c2ccc(F)cc2)CC1
AC50 (Cytochrome P450 2C19; read-out: AC50): 10 µM (inconclusive)
AC50 (Cytochrome P450 3A4): 3.16 µM (inconclusive)

N[N-][C+]1c2ccccc2N[C@H]1OC(=O)Nc1cccc(Cl)c1
AC50 (Cytochrome P450 2C19; read-out: AC50): 3.16 µM (inconclusive)
AC50 (Cytochrome P450 3A4): 5.01 µM (inconclusive)
AC50 (Cytochrome P450 2D6): 3.98 µM (inconclusive)

CCc1nnc(NC(=O)c2ccc(S(=O)(=O)NC3CCCCC3)cc2)s1
EC50 [4]: > 120 µM (not active)
EC50 [2]: > 120 µM (not active)
EC50 [3]: > 120 µM (not active)

CCCCn1c(=N)n(CC(=O)c2ccco2)c2ccccc21
AC50 (Cytochrome P450 2C19; read-out: AC50): 15.8 µM (inconclusive)
AC50 (Cytochrome P450 3A4): 31.6 µM (inconclusive)

COc1ccc(-c2cn(CCO)nc2-c2ccc(OC)cc2)cc1
EC50 [4]: 16.1 µM (active)
EC50 [2]: > 120 µM (not active)
EC50 [3]: > 120 µM (not active)

CN(C)c1cc[n+](CC(=O)Nc2ccc(Oc3ccccc3)cc2)cc1
EC50 [4]: 17.1 µM (active)
AC50 (INS1): 4.17 µM (active)
EC50 [2]: 14.9 µM (active)
EC50 [3]: > 120 µM (not active)

O=C(CN(C(=O)c1csnn1)c1ccc(F)c(Cl)c1)NCc1ccc(F)cc1
EC50 [1]: > 260 µM (inactive)

CCCc1cn(S(=O)(=O)c2ccc(OC)cc2OC)nc1N
AC50 [5]: 9.53 µM (active)

O=C(NCCCN1CCOCC1)c1cc2c(s1)CSC2
AC50 (Cytochrome P450 3A4): 15.8 µM (inconclusive)

COC(=O)c1cc(-c2c(C)nn(-c3ccccc3)c2C)[nH]n1
EC50 (H4): 11.2 µM (active)
EC50 [6]: 11.8 µM (active)
EC50 [7]: 11.5 µM (active)
AC50 [5]: 1.2 µM (active)

COc1ccc(-c2nc(Cn3c(SCc4ccc(F)cc4)nc4ccncc43)c(C)o2)cc1OC
EC50 [1]: 34.7 µM (active)

Cc1cc2c(cc1C)-c1nnnn1C(C)(C)C2
EC50 [1]: > 260 µM (inactive)

Cc1cnc(NC(=O)C(C)N2CCN(C)CC2)s1 (configuration not stated)
IC50 [8]: 80.4 µM (active)

O=C(NCCC[N+]1=CC=N[C@H]1c1ccccc1)N1CCCc2nc(-c3ccc(Br)cc3)ccc21
AC50 (Cytochrome P450 3A4): 3.16 µM (inconclusive)

CC(=O)N1CCC2(CCCN(C(=O)Nc3cccc(F)c3)C2)CC1
AC50 (Cytochrome P450 3A4): 31.6 µM (inconclusive)

Cc1noc(C)c1-c1cc(NCc2cccs2)ncn1
AC50 (Cytochrome P450 2C19): inconclusive
AC50 (Cytochrome P450 3A4): 31.6 µM (inconclusive)
AC50 (Cytochrome P450 2D6): 20 µM (inconclusive)

O=C(CN1C(=O)C2CC=CCC2C1=O)Nc1nc2ccc(F)cc2s1 (configuration not stated)
AC50 [5]: 0.494 µM (active)

CSC1=N/C(=C\c2ccc(C)cc2)C(=O)S1
AC50 (Cytochrome P450 3A4): 39.8 µM (inconclusive)

O=C(Nc1ccccc1[N+](=O)[O-])C1C(c2ccccc2)=C1c1ccccc1
AC50 (Cytochrome P450 3A4): 20 µM (inconclusive)
